Laboratory results as given in patent publication US8721963B2, “Cold sterilization of tissue engineering scaffolds with compressed carbon dioxide” (University of South Carolina, priority 2010, dated 2014).

How the values were obtained:
[1] = test system: B. atrophaeus spores; conditions: 40° C., 27.58 MPa, 4 hours; cited from earlier work
[2] = test system: G. stearothermophilus spores; conditions: 40° C., 27.58 MPa, 4 hours; cited from earlier work
[3] = test system: Escherichia coli (E. coli) (ATCC 15597); assay: Inactivation of E. coli embedded in model hydrogel by SC-CO2 treatment (plate counting); assay type: cell-based; conditions: 27.6 MPa, 40° C., 4 hours
Experimental: Staphylococcus aureus (S. aureus) (ATCC 25923) and Escherichia coli (E. coli) (ATCC 15597) were used as test microorganisms embedded in the hydrogel to investigate the bacteriocidal activity of pure SC-CO2 or SC-CO2+H2O2. Suspensions of S. aureus and E. coli were prepared for inoculation of the hydrogel. Cultures of these bacteria were preserved on DifcoTM […] soy agar and stored in Petri dishes inside of a refrigerator at 4° C. A fresh colony was transferred aseptically from the agar culture plate into a culture tube containing 30 g/L of sterile tryptone soy broth (TSB). The bacteria were grown to a logarithmic phase in the TSB at 35° C. for 24 hours (Cappuccino and Sherman 2001). A fresh bacterial culture was prepared before every experiment to ensure cell viability. […] A Petroff Hausser counting chamber was used to quantify the cfu count in the diluted samples. […] A pulverization procedure was followed to quantify the amount of bacteria in the inoculated hydrogel. […] The degree of killing was quantified with a standard plate counting technique. The log reduction of bacteria (S. aureus or E. coli) was calculated with equation (1), [formula] For use as negative controls, a quantified amount of inoculated hydrogel (with either S. aureus or E. coli) in a polyallomer centrifuge tube was immersed in a PolyScience laboratory temperature bath (model 9105) at 40° C. for 4 hours. […]

[4] = test system: B. pumilus spores; conditions: 40° C., 27.58 MPa, 4 hours; cited from earlier work
[5] = test system: Staphylococcus aureus (S. aureus) (ATCC 25923); assay: Inactivation of S. aureus embedded in model hydrogel by SC-CO2 treatment (plate counting); assay type: cell-based; conditions: 27.6 MPa, 40° C.
Experimental: Staphylococcus aureus (S. aureus) (ATCC 25923) and Escherichia coli (E. coli) (ATCC 15597) were used as test microorganisms embedded in the hydrogel to investigate the bacteriocidal activity of pure SC-CO2 or SC-CO2+H2O2. Suspensions of S. aureus and E. coli were prepared for inoculation of the hydrogel. Cultures of these bacteria were preserved on DifcoTM […] soy agar and stored in Petri dishes inside of a refrigerator at 4° C. A fresh colony was transferred aseptically from the agar culture plate into a culture tube containing 30 g/L of sterile tryptone soy broth (TSB). The bacteria were grown to a logarithmic phase in the TSB at 35° C. for 24 hours (Cappuccino and Sherman 2001). A fresh bacterial culture was prepared before every experiment to ensure cell viability. Both S. aureus and E. coli bacteria suspensions were diluted after incubation to a concentration of approximately 107 colony forming units per milliliter (cfu/mL). A Petroff Hausser counting chamber was used to quantify the cfu count in the diluted samples. Also, a standard plate counting technique was followed to verify the original number of cfu. The final number of S. aureus or E. coli generally ranged from 7.6×106 to 2.3×10^8 cfu/mL. The hydrogel was hydrated with the diluted bacteria suspension of either S. aureus or E. coli. For CO2 sterilization experiments, the model gel was hydrated with the diluted bacteria suspension. Typically, 0.1 g of dry powder (absorption capacity of 200 mL H2O/g) was hydrated with steam autoclaved DI water. The hydrated powder was left overnight inside of a refrigerator at 4° C. About 3 g of the completely incorporated hydrated gel were then transferred into a polyallomer centrifuge tube for the CO2 treatment, to be described subsequently. […] A pulverization procedure was followed to quantify the amount of bacteria in the inoculated hydrogel. Bacteria were dislodged from the gel by pulverizing in a Stomacher 400 Circulator (Seward Ltd., United Kingdom) for 10 minutes at 230 revolutions per minute (rpm). The degree of killing was quantified with a standard plate counting technique. The log reduction of bacteria (S. aureus or E. coli) was calculated with equation (1), [formula] For use as negative controls, a quantified amount of inoculated hydrogel (with either S. aureus or E. coli) in a polyallomer centrifuge tube was immersed in a PolyScience laboratory temperature bath (model 9105) at 40° C. for 4 hours. The inoculated hydrogel was removed from the bath, pulverized in the Stomacher 400, and the degree of killing was quantified using the standard plate counting technique.

O=C=O [pure SC-CO2, carbon dioxide]
log reduction of B. atrophaeus spores [1]: 6 log
log reduction of G. stearothermophilus spores [2]: 6 log
killing of E. coli ([3]; in hydrogel): Complete killing
average log-reduction of E. coli ([3]; in poly(acrylic acid-co-acrylamide) hydrogel): 7.93 log
log reduction of B. pumilus spores [4]: 6 log
killing of S. aureus ([5]; in hydrogel, 4 hours): Complete killing
D-value (D40) of S. aureus ([5]; in hydrogel): 4.6 min
time required to obtain 6-log reduction of S. aureus ([5]; in hydrogel): about 27.4 minutes
log-reduction of S. aureus ([5]; in hydrogel, 10 minutes): 1.94 log
log-reduction of S. aureus ([5]; in hydrogel, 15 minutes): 3.42 log
log-reduction of S. aureus ([5]; in hydrogel, 20 minutes): 4.13 log
killing of S. aureus ([5]; in hydrogel, 30 minutes): complete kill
killing of S. aureus ([5]; in hydrogel, 60 minutes): complete kill
average log-reduction of S. aureus ([5]; in poly(acrylic acid-co-acrylamide) hydrogel, 4 hours): 7.72 log
